From PubChem BioAssay AID330 (DTP/NCI, 2004)
Where “and” joins values, the source holds several entries; their conditions need not be identical. Identical values can stand only once. Inconclusive results and toxic doses are left out. The calls were made as follows: active = survival T/C of 150% or more; inactive = T/C below 125% in these data.

Tested on: P388 leukemia ip, CD2F1 mice, survival T/C
Experiment: NCI In Vivo Anticancer Drug Screen. Data for tumor model P388 Leukemia (intraperitoneal) in CD2F1 (CDF1) mice
Conditions: endpoint: median survival time, higher = longer survival
Procedure, shortened: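 Mice carrying the transplanted tumor received test compound or vehicle. Survival was recorded in each group, and the value is the treated-group measurement divided by that of the vehicle-treated control group.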

[1] = dose: 60.0 mg/kg/injection, schedule: Q01DX005 (ip), vehicle: saline with Tween-80
[2] = dose: 120.0 mg/kg/injection, schedule: Q01DX005 (ip), vehicle: saline with Tween-80
[3] = dose: 100.0 mg/kg/injection, schedule: Q04DX003 (ip), vehicle: saline with Tween-80
[4] = dose: 200.0 mg/kg/injection, schedule: Q04DX003 (ip), vehicle: saline with Tween-80
[5] = dose: 400.0 mg/kg/injection, schedule: Q04DX003 (ip), vehicle: saline with Tween-80
[6] = dose: 50.0 mg/kg/injection, schedule: Q01DX001 (ip), vehicle: saline with Tween-80
[7] = dose: 100.0 mg/kg/injection, schedule: Q01DX001 (ip), vehicle: saline with Tween-80
[8] = dose: 200.0 mg/kg/injection, schedule: Q01DX001 (ip), vehicle: saline with Tween-80

Measured: T/C

O=C(c1ccc(O)cc1)c1ccc(C(=O)c2ccc(O)cc2)cc1
inactive: dose: 50.0 mg/kg/injection, schedule: Q01DX009 (ip), vehicle: Klucel (hydroxypropylcellulose) (HPC) 99 % of control | dose: 100.0 mg/kg/injection, schedule: Q01DX009 (ip), vehicle: Klucel (hydroxypropylcellulose) (HPC) 97 % of control | dose: 200.0 mg/kg/injection, schedule: Q01DX009 (ip), vehicle: Klucel (hydroxypropylcellulose) (HPC) 90 % of control

CC(C)B1N(C(C)(C)C)B(C(C)C)N(C(C)(C)C)B(C(C)C)N1C(C)(C)C
inactive: [1] 93 % of control | [2] 101 % of control | dose: 240.0 mg/kg/injection, schedule: Q01DX005 (ip), vehicle: saline with Tween-80 104 % of control

CC(CC/C=C/CO)C1CC(OS(=O)(=O)O)C2(O)C1(C)CCC1C3CCC(O)C(O)C3C(O)CC12O (stereo unspecified)
inactive: dose: 5.0 mg/kg/injection, schedule: Q01DX005 (ip), vehicle: Klucel (hydroxypropylcellulose) (HPC) 100 % of control | dose: 10.0 mg/kg/injection, schedule: Q01DX005 (ip), vehicle: Klucel (hydroxypropylcellulose) (HPC) 106 % of control | dose: 20.0 mg/kg/injection, schedule: Q01DX005 (ip), vehicle: Klucel (hydroxypropylcellulose) (HPC) 98 % of control | dose: 40.0 mg/kg/injection, schedule: Q01DX005 (ip), vehicle: Klucel (hydroxypropylcellulose) (HPC) 95 % of control

S=C([S][Sn]([c]1ccccc1)([c]1ccccc1)[c]1ccccc1)N1CCCCC1
inactive: dose: 3.12 mg/kg/injection, schedule: Q01DX009 (ip), vehicle: saline with Tween-80 99 % of control | dose: 6.25 mg/kg/injection, schedule: Q01DX009 (ip), vehicle: saline with Tween-80 104 % of control | dose: 12.5 mg/kg/injection, schedule: Q01DX009 (ip), vehicle: saline with Tween-80 107 % of control | dose: 25.0 mg/kg/injection, schedule: Q01DX009 (ip), vehicle: saline with Tween-80 112 % of control

CN1CC[N+](C)=C1c1nc2ccccc2n1C
inactive: dose: 12.5 mg/kg/injection, schedule: Q01DX009 (ip), vehicle: suspension in saline 105 % of control | dose: 25.0 mg/kg/injection, schedule: Q01DX009 (ip), vehicle: suspension in saline 117 % of control | dose: 50.0 mg/kg/injection, schedule: Q01DX009 (ip), vehicle: suspension in saline 118 % of control

COc1ccc(-c2cnc3c(N)nn(C)c3n2)cc1
inactive: [3] 90 % of control | [4] 100 % of control | [5] 105 % of control

O=C(O)c1c(-c2ccccc2)nn(-c2ccccc2)c1-c1ccccc1
inactive: dose: 50.0 mg/kg/injection, schedule: Q04DX003 (ip), vehicle: suspension in saline 108 % of control | dose: 100.0 mg/kg/injection, schedule: Q04DX003 (ip), vehicle: suspension in saline 106 % of control | dose: 200.0 mg/kg/injection, schedule: Q04DX003 (ip), vehicle: suspension in saline 102 % of control

CC(=O)OC1CCC2C3CCc4cc(OP(=O)(N5CC5)N5CC5)ccc4C3CCC12C (stereo unspecified)
inactive: dose: 50.0 mg/kg/injection, schedule: Q01DX009 (ip), vehicle: saline with Tween-80 92 % of control | dose: 100.0 mg/kg/injection, schedule: Q01DX009 (ip), vehicle: saline with Tween-80 114 % of control | dose: 200.0 mg/kg/injection, schedule: Q01DX009 (ip), vehicle: saline with Tween-80 108 % of control

CS(=N)(=O)CCC(N)C(=O)O (stereo unspecified) (tested in a mixture with another compound)
inactive: dose: 25.0 mg/kg/injection, schedule: Q01DX001 (ip), vehicle: saline 100 % of control | dose: 50.0 mg/kg/injection, schedule: Q01DX001 (ip), vehicle: saline 105 % of control | dose: 100.0 mg/kg/injection, schedule: Q01DX001 (ip), vehicle: saline 105 % of control

Cc1ccc2nc3[nH]c(=O)[nH]c(=O)c3c(C(N)=O)c2c1
inactive: dose: 50.0 mg/kg/injection, schedule: Q01DX005 (ip), vehicle: Klucel (hydroxypropylcellulose) (HPC) 100 % of control | dose: 100.0 mg/kg/injection, schedule: Q01DX005 (ip), vehicle: Klucel (hydroxypropylcellulose) (HPC) 94 % of control | dose: 200.0 mg/kg/injection, schedule: Q01DX005 (ip), vehicle: Klucel (hydroxypropylcellulose) (HPC) 94 % of control

C[C@]12C=CC(=O)C[C@@H]1CC[C@@H]1[C@@H]2C(=O)C[C@]2(C)C(=O)CC[C@@H]12
inactive: [3] 108 % of control | [4] 91 % of control | [5] 108 % of control

CC1(c2cccc[n+]2Cc2ccc(Cl)c(Cl)c2)OCCO1
inactive: dose: 12.5 mg/kg/injection, schedule: Q01DX005 (ip), vehicle: saline 100 % of control | dose: 25.0 mg/kg/injection, schedule: Q01DX005 (ip), vehicle: saline 99 % of control

C=C1C(=O)O[C@@H]2C[C@@H](C)[C@@H]3CC(=O)OC[C@@]3(C)C[C@H]12
inactive: [6] 100 % of control | [7] 117 % of control | [8] 118 % of control

CN(C=O)/C=C1\CC(OO)NC1=O (stereo unspecified)
inactive: dose: 60.0 mg/kg/injection, schedule: Q01DX005 (ip), vehicle: saline 100 % of control | dose: 120.0 mg/kg/injection, schedule: Q01DX005 (ip), vehicle: saline 101 % of control | dose: 240.0 mg/kg/injection, schedule: Q01DX005 (ip), vehicle: saline 103 % of control

CCN(CC)CCCNc1cccc2c(SCc3ccccc3)ccnc12
inactive: dose: 50.0 mg/kg/injection, schedule: Q01DX005 (ip), vehicle: saline with Tween-80 112 % of control | dose: 100.0 mg/kg/injection, schedule: Q01DX005 (ip), vehicle: saline with Tween-80 102 % of control

CC(=O)CCC(=O)c1ccoc1
inactive: dose: 3.12 mg/kg/injection, schedule: Q01DX005 (ip), vehicle: Klucel (hydroxypropylcellulose) (HPC) 94 % of control | dose: 6.25 mg/kg/injection, schedule: Q01DX005 (ip), vehicle: Klucel (hydroxypropylcellulose) (HPC) 103 % of control | dose: 12.5 mg/kg/injection, schedule: Q01DX005 (ip), vehicle: Klucel (hydroxypropylcellulose) (HPC) 100 % of control | dose: 25.0 mg/kg/injection, schedule: Q01DX005 (ip), vehicle: Klucel (hydroxypropylcellulose) (HPC) 102 % of control and 95 % of control

C=CCc1cc(OC)c(OCC(=O)O)c(OC)c1
inactive: dose: 100.0 mg/kg/injection, schedule: Q04DX003 (ip), vehicle: Klucel (hydroxypropylcellulose) (HPC) 98 % of control | dose: 200.0 mg/kg/injection, schedule: Q04DX003 (ip), vehicle: Klucel (hydroxypropylcellulose) (HPC) 109 % of control

CC(C)CC(CO)Cc1nc2ccccc2[nH]1 (stereo unspecified)
inactive: [1] 114 % of control | [2] 105 % of control

COc1cc2c(c(OC)c1OC)-c1ccc(S(C)(=O)=O)c(=O)cc1[C@@H](NC(C)=O)CC2
inactive: dose: 0.78 mg/kg/injection, schedule: Q01DX009 (ip), vehicle: Klucel (hydroxypropylcellulose) (HPC) 105 % of control and 106 % of control | dose: 1.56 mg/kg/injection, schedule: Q01DX009 (ip), vehicle: Klucel (hydroxypropylcellulose) (HPC) 105 % of control and 120 % of control | dose: 3.12 mg/kg/injection, schedule: Q01DX009 (ip), vehicle: Klucel (hydroxypropylcellulose) (HPC) 106 % of control and 111 % of control | dose: 6.25 mg/kg/injection, schedule: Q01DX009 (ip), vehicle: Klucel (hydroxypropylcellulose) (HPC) 115 % of control | dose: 12.5 mg/kg/injection, schedule: Q01DX009 (ip), vehicle: Klucel (hydroxypropylcellulose) (HPC) 105 % of control and 122 % of control | dose: 25.0 mg/kg/injection, schedule: Q01DX009 (ip), vehicle: Klucel (hydroxypropylcellulose) (HPC) 108 % of control

Cc1cc(OC(=O)c2c(-c3c(Cl)cccc3Cl)noc2C)n(-c2ccc(NC(=O)c3c(-c4c(Cl)cccc4Cl)noc3C)cc2)n1
inactive: dose: 50.0 mg/kg/injection, schedule: Q01DX009 (ip), vehicle: saline 93 % of control | dose: 100.0 mg/kg/injection, schedule: Q01DX009 (ip), vehicle: saline 89 % of control | dose: 200.0 mg/kg/injection, schedule: Q01DX009 (ip), vehicle: saline 88 % of control

CC(C)(C)S(=O)(=O)C(C)(C)C
inactive: dose: 25.0 mg/kg/injection, schedule: Q01DX001 (ip), vehicle: saline with Tween-80 109 % of control | [6] 111 % of control | [7] 95 % of control | [8] 100 % of control
